The text below walks through data of US20190336519A1, “APPLICATION OF ALBIFLORIN AS INDOLEAMINE 2,3-DIOXYGENASE (IDO) INHIBITOR” (priority 2017, published 2019).

SMILES strings stand for the structures. Entries after “also recorded” stand apart in the source; their conditions may differ.

One assay deals with T1, IDO (Mus musculus, UniProt P28776).
T1 construct: ratio of kynurenine/tryptophan (KYN/TrP) in the mouse hippocampal tissue; from tissue; host or cells: mouse hippocampal tissue (LPS model)
T1 sequence (P28776 whole entry): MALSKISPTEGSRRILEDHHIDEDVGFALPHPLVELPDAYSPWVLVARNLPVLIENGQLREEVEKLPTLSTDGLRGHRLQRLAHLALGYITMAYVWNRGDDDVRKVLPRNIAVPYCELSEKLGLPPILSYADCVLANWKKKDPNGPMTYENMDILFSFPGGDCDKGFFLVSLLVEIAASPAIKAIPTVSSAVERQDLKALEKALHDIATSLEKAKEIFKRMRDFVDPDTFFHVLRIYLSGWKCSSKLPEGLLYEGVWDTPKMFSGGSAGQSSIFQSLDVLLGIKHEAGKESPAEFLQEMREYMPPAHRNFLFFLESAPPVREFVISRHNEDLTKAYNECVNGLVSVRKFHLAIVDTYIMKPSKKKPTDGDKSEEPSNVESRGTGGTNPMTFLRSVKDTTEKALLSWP
Kind of assay: Ratio of kynurenine/tryptophan (IDO activity) in mouse hippocampal tissue after modeling with LPS. The class given is in vivo. The note with it: LPS mice, gavage 7 days. The protocol: (§1) The mice were randomly divided into 6 groups (16 for each group): Blank group, Model group, Fluoxetine hydrochloride (a positive drug) group (10 mg/kg), Low dose of albiflorin group (3.5 mg/kg), Medium dose of albiflorin group (7 mg/kg), and High dose of albiflorin group (14 mg/kg), and administered continuously by gavage for 7 days.
(§2) On the 7th day after administration, LPS was injected intraperitoneally (0.83 mg/kg) for modeling. At 16 h after the injection, the Open Field Test (OFT) was carried out; at 24 h after the injection, the Forced Swimming Test (FST) and Tail Suspension Test (TST) were carried out. Thereafter, the blood was taken by enucleating eyeball, and centrifuged to collect the plasma. After the mice were sacrificed, the hippocampal tissues were taken out and quickly frozen in liquid nitrogen, and stored at −80° C.
3. Determination of the effects of albiflorin and fluoxetine on expression of IDO in the mouse hippocampal tissue.
(§3) The test data are shown in mean±SE, and originPro8.0 software was used for the statistical analysis of the data and plotting.
The activity of IDO in the hippocampus was expressed through the levels of KYN and TrP and the ratio of KYN/TrP.

Assay [1] deals with melatonin receptors 1 (MT1). Nature of the assay: Western Blot of MT1 in hippocampal tissue of chronic unpredictable mild stress (CUMS) rats. Format: in vivo, rat. The note with it: for MT1 (folds relative to Blank group): CUMS rat hippocampal tissue, Mean±SE. An excerpt:
(§4) 1. […] Western Blot was used to detect the effects of albiflorin on IDO and MT1, and the results are found in FIG. 1:
(§5) Effects of albiflorin on indoleamine 2,3-dioxygenase (IDO) and melatonin receptors 1 (MT1) in the rat hippocampal tissue (Mean±SE)

In assay [2] the test system is indoleamine 2,3-dioxygenase (IDO). Nature of the assay: Western Blot of IDO in hippocampal tissue of chronic unpredictable mild stress (CUMS) rats. The class given is in vivo, rat. The note with it: for IDO (folds relative to Blank group): CUMS rat hippocampal tissue, Mean±SE.
From the text: as §4, §5

Assay [3] concerns tryptophan metabolic pathway (kynurenine-quinolinic acid / serotonin-melatonin). Nature of the assay: Tryptophan metabolites in hippocampus of CUMS rats. Format: in vivo, rat. The conditions noted are these: after 7 days of administration (7 mg/kg, 14 mg/kg).
Assay [4] concerns IL-6, TNF-α, CORT in mouse plasma. Kind of assay: Levels of inflammatory factors and CORT in mouse plasma after modeling with LPS. Format: in vivo. The conditions noted are these: LPS mice, gavage 7 days. The protocol:
as §1, §2
(§6) 2. Determination of the effects of albiflorin and the positive drug fluoxetine on the concentrations of inflammatory factors IL-6, TNF-α, and PGE2, and glucocorticoid CORT in the mouse plasma and hippocampal tissue.
as §3

Assay [5] deals with IL-6, TNF-α, CORT in mouse hippocampal tissue. Nature of the assay: ELISA of inflammatory factors and CORT in mouse hippocampal tissue after modeling with LPS. The class given is in vivo. The note with it: LPS mice, gavage 7 days. The protocol: as §1, §2, §6, §3
An ELISA assay was used to detect the levels of inflammatory factors IL-6, TNF-α and PGE2, and CORT in the mouse hippocampal tissue.
For orientation: An ELISA detects its analyte on a solid surface through an enzyme-linked reagent.

In assay [6] the test system is LPS-induced mouse inflammatory depression-like behaviors. Nature of the assay: Behavioral tests (Forced Swimming Test, Tail Suspension Test) in mice after modeling with LPS. Format: in vivo. The conditions noted are these: High dose group (14 mg/kg), gavage 7 days, 24 h after LPS. How it is done:
as §1
1. The behavioral tests: Forced Swimming Test (FST), Tail Suspension Test (TST) and Open Field Test (OFT)
as §2, §3

The mark [7] stands for this setting: CUMS rat, after 7 days of administration (7 mg/day, 14 mg/day), P<0.01.
[8] abbreviates: medium and high doses (7, 14 mg/kg).

As to `CNCCC(Oc1ccc(C(F)(F)F)cc1)c1ccccc1` (stereo not shown) [Fluoxetine, fluoxetine, reference compound], at IDO (10 mg/kg), the “LPS-induced activation/overexpression of IDO in the hippocampus compared with Model group” value is “failed to be corrected”. Also, the “MT1 (folds relative to Blank group)” value in assay [1] (10 mg/kg) was 0.50 ± 0.005 folds relative to Blank group. Further, the “IDO (folds relative to Blank group)” value in assay [2] (10 mg/kg) is given as 1.29 ± 0.014 folds relative to Blank group.

As to `C[C@]12C[C@@H](O)[C@@H]3C[C@@]1(O[C@@H]1O[C@H](CO)[C@@H](O)[C@H](O)[C@H]1O)[C@]3(COC(=O)c1ccccc1)C(=O)O2` [Albiflorin, albiflorin], the “activity of IDO in the mouse hippocampal tissue” value at IDO (High dose (14 mg/kg), 14 mg/kg) is “significantly inhibited; also recorded: decrease”. On IDO (High dose group (14 mg/kg), P<0.05), the “ratio of kynurenine/tryptophan (KYN/TrP) in the mouse hippocampal tissue compared with Model group” value is “decreased”. In addition, the “ratio of kynurenine to tryptophan (KYN/TrP)” value in assay [3] (CUMS rat hippocampus) was “downregulated significantly”. For the same compound, in assay [3] (CUMS rat, P<0.01), the “level of kynurenine in the rat hippocampus” value was “decreased significantly”, the “level of melatonin in the hippocampus” value was “increased significantly”, the “level of quinolinic acid in the rat hippocampus” value is “decreased significantly” and the “level of serotonin in the hippocampus” value is “increased significantly”. Also, the “MT1 (folds relative to Blank group)” value in assay [1] (3.5 mg/kg) is reported as 1.37 ± 0.013 folds relative to Blank group. Besides, the “MT1 (folds relative to Blank group)” value in assay [1] (7 mg/kg) was 1.39 ± 0.0014 folds relative to Blank group. The “MT1 (folds relative to Blank group)” value in assay [1] (14 mg/kg) was 1.39 ± 0.014 folds relative to Blank group. In assay [1] (setting [7]), the “melatonin receptors 1 (MT1) in the rat hippocampus” value is “increased significantly”. Also, in assay [4], the “concentration of CORT in the mouse plasma” value is recorded as “substantially decrease”. Further, in assay [4] (setting [8]), the “level of IL-6 in the mouse plasma” value was “substantially decreased” and the “level of TNF-α in the mouse plasma” value is “substantially decreased”. Moreover, the “IDO (folds relative to Blank group)” value in assay [2] (3.5 mg/kg) is reported as 1.46 ± 0.014 folds relative to Blank group. Also, the “IDO (folds relative to Blank group)” value in assay [2] (7 mg/kg) is on record as 1.02 ± 0.010 folds relative to Blank group. For the same compound, the “IDO (folds relative to Blank group)” value in assay [2] (14 mg/kg) is 0.80 ± 0.008 folds relative to Blank group. For the same compound, the “IDO activity in the rat hippocampus” value in assay [2] (setting [7]) is on record as “significantly inhibited”. Also, in assay [5] (High dose group (14 mg/kg)), the “level of IL-6 in the mouse hippocampal tissue compared with Model group” value is recorded as “significantly decreased” and the “level of TNF-α in the mouse hippocampal tissue compared with Model group” value is reported as “significantly decreased”. The “level of CORT in the hippocampal tissue” value in assay [5] is listed as “substantially decreased”. Further, the “immobility time in the Tail Suspension Test compared with Model group” value in assay [6] is “significant difference”.
